Data: ChEMBL document CHEMBL1149068, “Comparison of the anti-herpes simplex virus activities of propolis and 3-methyl-but-2-enyl caffeate” (1994)

Legend:
Assay type in all cases: functional
Human alphaherpesvirus 1 [1] = test: Antiviral activity against HSV1 H29S in african green monkey Vero cells assessed as log reduction in viral titers after 0.001 multiple round of replication at 12.5 ug/ml after 72 hrs
Human alphaherpesvirus 1 [2] = test: Antiviral activity against HSV1 H29S in african green monkey Vero cells assessed as log reduction in viral titers after 0.001 multiple round of replication at 50 ug/ml after 72 hrs
Human alphaherpesvirus 1 [3] = test: Antiviral activity against HSV1 H29S in african green monkey Vero cells assessed as log reduction in viral titers after 0.001 multiple round of replication at 25 ug/ml after 72 hrs
Human alphaherpesvirus 1 [4] = test: Antiviral activity against HSV1 H29S in african green monkey Vero cells assessed as log reduction in viral titers after 0.001 multiple round of replication at 6.25 ug/ml after 72 hrs
Human alphaherpesvirus 1 [5] = test: Antiviral activity against HSV1 H29S in african green monkey Vero cells assessed as reduction in viral DNA synthesis after 1 multiple round of replication at 30 ug/ml after 18 hrs by agarose gel electrophoresis relative to control
Human alphaherpesvirus 1 [6] = test: Antiviral activity against HSV1 H29S in african green monkey Vero cells assessed as log reduction in viral titers after 1 multiple round of replication at 25 ug/ml after 72 hrs
Human alphaherpesvirus 1 [7] = test: Antiviral activity against HSV1 H29S in african green monkey Vero cells assessed as log reduction in viral titers after 1 multiple round of replication at 6.25 ug/ml after 72 hrs
Human alphaherpesvirus 1 [8] = test: Antiviral activity against HSV1 H29S in african green monkey Vero cells assessed as log reduction in viral titers after 1 multiple round of replication at 50 ug/ml after 72 hrs
Human alphaherpesvirus 1 [9] = test: Antiviral activity against HSV1 H29S in african green monkey Vero cells assessed as reduction in viral DNA synthesis after 1 multiple round of replication at 60 ug/ml after 18 hrs by agarose gel electrophoresis relative to control
Human alphaherpesvirus 1 [10] = test: Antiviral activity against HSV1 H29S in african green monkey Vero cells assessed as log reduction in viral titers after 1 multiple round of replication at 12.5 ug/ml after 72 hrs
Influenza A virus = test: Antiviral activity against influenza A virus Hong Kong assessed as reduction in viral titers of reproduction at 100 ug/ml

SMILES	Activity (Human alphaherpesvirus 1 [1])	Activity (Human alphaherpesvirus 1 [2])	Activity (Human alphaherpesvirus 1 [3])	Activity (Human alphaherpesvirus 1 [4])	fold change (FC) (Human alphaherpesvirus 1 [5])	Activity (Human alphaherpesvirus 1 [6])	Activity (Human alphaherpesvirus 1 [7])	Activity (Human alphaherpesvirus 1 [8])	fold change (FC) (Human alphaherpesvirus 1 [9])	Activity (Human alphaherpesvirus 1 [10])	Selectivity Index (Influenza A virus)
Nc1nc2c(ncn2COCCO)c(=O)[nH]1 [ACYCLOVIR]	3	3.25	3	2	–	–	–	–	–	–	–
CC(C)=CCOC(=O)/C=C/c1ccc(O)c(O)c1 (stereo in doubt; form 2) [PRENYL CAFFEATE]	1.25	3.6	3.25	0.6	8	2.8	1.75	2.8	32	2.5	–
COc1cc(/C=C/C(=O)OCCC(C)C)ccc1O [ISOPENTYL FERULATE]	–	–	–	–	–	–	–	–	–	–	8
CC(C)=CCOC(=O)/C=C/c1ccc(O)c(O)c1 (stereo in doubt; form 1) [PRENYL CAFFEATE]	1.1	3.1	2	–	–	2.5	1	2.5	–	1.5	–
